{"source": "patent US20230346745A1", "about": "“AGENT FOR PREVENTING OR TREATING TAUOPATHY” (FUJIFILM Toyama Chemical Co., Ltd., priority 2017, published 2023)", "assay_type_in_all_cases": "in vivo, human", "key": {"Aβ-42": {"test_system": "Aβ-42", "assay": "Phase II placebo-controlled trial: cerebrospinal fluid biomarker Aβ-42 (sandwich ELISA)", "settings": "CSF, mild to moderate AD patients", "text": "(§1) Test Example 1 Multicenter randomized double-blind phase II placebo-controlled trial for assessing effectiveness and safety of Compound A in mild to moderate AD patients Subject (selection criteria): Patients were screened in a period from 42 days before treatment assignment to the assignment based on the following selection criteria. • Patients who were probable AD and are 55 years old or older and 85 years old or younger at the time of obtaining consent of screening. • Patients with an MMSE score of 12 to 22 at the time of screening • Patients with a Modified Hachinski Ischemia Scale score of 4 or less • Patients who have been treated with a donepezil hydrochloride or rivastigmine transdermal system for at least 4 months before the baseline and with a stable dose thereof for 3 months before the baseline. • In the case of patients who have received memantine in addition to being treated with a donepezil hydrochloride or rivastigmine transdermal system, patients who have been treated with memantine for at least 4 months before the baseline and with a stable dose thereof for 3 months before the baseline. • Patients whose brain MRI or CT results match AD at the time of screening Organization of groups: Patients matched (484 patients) were randomly divided into the following 3 groups and the trial was started. (1) High dose group: 224 mg of a test compound (160 mg in terms of Compound A) was orally administered once a day for 4 weeks and then 448 mg of a test compound (320 mg in terms of Compound A) was orally administered once a day for 48 weeks (158 patients) (2) Low dose group: 224 mg of a test compound (160 mg in terms of Compound A) was orally administered once a day for 52 weeks (166 patients) (3) Placebo group: placebo was orally administered once a day for 52 weeks (158 patients) Method of assessment: Cerebrospinal fluid biomarker\n(§2) Cerebrospinal fluid was collected by lumber puncture from subjects at baseline (within 2 weeks before the first day of administration of investigational drug) and after 52 weeks (within 2 weeks before week 52), and divided into 9-ml aliquots in polyethylene tubes and stored at -80° C. The total tau protein concentration (total-Tau) in the cerebrospinal fluid was measured by an ECL method. The phosphorylated tau protein concentration (p-Tau) was measured by ELISA method. The Aβ-42 value in the cerebrospinal fluid was measured by sandwich ELIZA which has been designed for measurement of AP including 1 amino acid and 42 amino acids.\n(§3) Change in cerebrospinal fluid (CSF) biomarkers at week 52 from the baseline was compared by analysis of covariance between a high dose group and a placebo group, and between a low dose group and the placebo group. […]"}, "p-Tau/total-Tau": {"test_system": "p-Tau/total-Tau", "assay": "Phase II placebo-controlled trial: ratio p-Tau/total-Tau in cerebrospinal fluid", "settings": "CSF, AD patients; for p-Tau/total-Tau change at week 52 from baseline, difference from placebo group / p-Tau/total-Tau change at week 52 from baseline, least square means (standard error): First total-Tau measurement (Table 2); for p-Tau/total-Tau (remeasured total-Tau) change at week 52 from baseline, difference from placebo group / p-Tau/total-Tau (remeasured total-Tau) change at week 52 from baseline, least square means (standard error): Total-Tau concentration remeasured (Table 3)", "text": "as §1, §2\n(§4) The total-Tau concentration was measured twice using the same cerebrospinal fluid sample.\n(§5) Change in cerebrospinal fluid (CSF) biomarkers at week 52 from the baseline was compared by analysis of covariance between a high dose group and a placebo group, and between a low dose group and the placebo group. For models, the baseline of cerebrospinal fluid (CSF) biomarkers was included as a covariate and the significance level was 5%."}, "Aβ-40": {"test_system": "Aβ-40", "assay": "Phase II placebo-controlled trial: cerebrospinal fluid biomarker Aβ-40", "settings": "CSF, mild to moderate AD patients", "text": "as §1, §2, §3"}, "[1]": {"test_system": "total tau protein (total-Tau)", "assay": "Phase II placebo-controlled trial: cerebrospinal fluid biomarker total-Tau (ECL method, measured twice)", "settings": "CSF, AD patients; for total-Tau change at week 52 from baseline, difference from placebo group / total-Tau change at week 52 from baseline, least square means (standard error): First measurement (Table 2); for total-Tau (remeasured) change at week 52 from baseline, difference from placebo group / total-Tau (remeasured) change at week 52 from baseline, least square means (standard error): Total-Tau concentration remeasured (Table 3)", "text": "as §1, §2, §4, §5"}, "Aβ": {"test_system": "Aβ", "assay": "Phase II placebo-controlled trial: concentration of Aβ in cerebrospinal fluid (overall statement)", "settings": "Compound A group compared to the placebo group; mild to moderate AD patients", "text": "as §1, with “(1) High dose group: 224 mg of a test compound (160 mg in terms of Compound A) was orally administered once a day for 4 weeks and then 448 mg of a test compound (320 mg in terms of Compound A) was orally administered once a day for 48 weeks (158 patients) (2) Low dose group: 224 mg of a test compound (160 mg in terms of Compound A) was orally administered once a day for 52 weeks (166 patients) (3) Placebo group: placebo was orally administered once a day for 52 weeks (158 patients) Method of assessment: Cerebrospinal fluid biomarker” left out"}, "[2]": {"test_system": "phosphorylated tau protein (p-Tau)", "assay": "Phase II placebo-controlled trial: cerebrospinal fluid biomarker p-Tau (ELISA)", "settings": "for p-Tau change at week 52 from baseline, difference from placebo group / p-Tau change at week 52 from baseline, least square means (standard error): CSF", "text": "as §1, §2, §5"}, "Aβ-38": {"test_system": "Aβ-38", "assay": "Phase II placebo-controlled trial: cerebrospinal fluid biomarker Aβ-38", "settings": "CSF, mild to moderate AD patients", "text": "as §1, §2, §3"}, "[3]": {"settings": "High dose group: 160 mg 4 weeks then 320 mg 48 weeks in terms of Compound A, oral once a day"}, "[4]": {"settings": "Low dose group: 160 mg in terms of Compound A, oral once a day 52 weeks"}, "[5]": {"settings": "High dose group: 160 mg 4 weeks then 320 mg 48 weeks in terms of Compound A, oral once a day, mild to moderate AD patients"}, "[6]": {"settings": "Low dose group: 160 mg in terms of Compound A, oral once a day 52 weeks, mild to moderate AD patients"}}, "data": [{"smiles": "OC1CN(CCCOCCc2ccc3sccc3c2)C1", "note": "[Compound A, 1-(3-(2-(1-benzothiophen-5-yl)ethoxy)propyl)azetidin-3-ol]", "values": [{"measurement": "Aβ-42 change at week 52 from baseline, difference from placebo group", "setting": "Aβ-42; [3]", "value": 32.90, "unit": "pg/mL"}, {"measurement": "Aβ-42 change at week 52 from baseline, least square means (standard error)", "setting": "Aβ-42; [3]", "value": "11.55(25.578) pg/mL"}, {"measurement": "Aβ-42 change at week 52 from baseline, difference from placebo group", "setting": "Aβ-42; [4]", "value": 11.65, "unit": "pg/mL"}, {"measurement": "Aβ-42 change at week 52 from baseline, least square means (standard error)", "setting": "Aβ-42; [4]", "value": "−9.70(30.362) pg/mL"}, {"measurement": "p-Tau/total-Tau change at week 52 from baseline, difference from placebo group", "setting": "p-Tau/total-Tau; [3]", "value": "−11.11", "unit": "%"}, {"measurement": "p-Tau/total-Tau change at week 52 from baseline, least square means (standard error)", "setting": "p-Tau/total-Tau; [3]", "value": "−4.47(3.21) %"}, {"measurement": "p-Tau/total-Tau change at week 52 from baseline, difference from placebo group", "setting": "p-Tau/total-Tau; [4]", "value": "−4.60", "unit": "%"}, {"measurement": "p-Tau/total-Tau change at week 52 from baseline, least square means (standard error)", "setting": "p-Tau/total-Tau; [4]", "value": "2.04(4.33) %"}, {"measurement": "p-Tau/total-Tau (remeasured total-Tau) change at week 52 from baseline, difference from placebo group", "setting": "p-Tau/total-Tau; [3]", "value": 0.26, "unit": "%"}, {"measurement": "p-Tau/total-Tau (remeasured total-Tau) change at week 52 from baseline, least square means (standard error)", "setting": "p-Tau/total-Tau; [3]", "value": "0.04(0.17) %"}, {"measurement": "p-Tau/total-Tau (remeasured total-Tau) change at week 52 from baseline, difference from placebo group", "setting": "p-Tau/total-Tau; [4]", "value": 0.03, "unit": "%"}, {"measurement": "p-Tau/total-Tau (remeasured total-Tau) change at week 52 from baseline, least square means (standard error)", "setting": "p-Tau/total-Tau; [4]", "value": "−0.20(0.20) %"}, {"measurement": "Aβ-40 change at week 52 from baseline, difference from placebo group", "setting": "Aβ-40; [3]", "value": 1206.87, "unit": "pg/mL"}, {"measurement": "Aβ-40 change at week 52 from baseline, least square means (standard error)", "setting": "Aβ-40; [3]", "value": "290.84(466.956) pg/mL"}, {"measurement": "Aβ-40 change at week 52 from baseline, difference from placebo group", "setting": "Aβ-40; [4]", "value": 75.71, "unit": "pg/mL"}, {"measurement": "Aβ-40 change at week 52 from baseline, least square means (standard error)", "setting": "Aβ-40; [4]", "value": "−840.32(559.467) pg/mL"}, {"measurement": "total-Tau change at week 52 from baseline, difference from placebo group", "setting": "[1]; [3]", "value": 81.94, "unit": "pg/mL"}, {"measurement": "total-Tau change at week 52 from baseline, least square means (standard error)", "setting": "[1]; [3]", "value": "11.38(47.304) pg/mL"}, {"measurement": "total-Tau change at week 52 from baseline, difference from placebo group", "setting": "[1]; [4]", "value": 28.19, "unit": "pg/mL"}, {"measurement": "total-Tau change at week 52 from baseline, least square means (standard error)", "setting": "[1]; [4]", "value": "−42.36(63.947) pg/mL"}, {"measurement": "total-Tau (remeasured) change at week 52 from baseline, difference from placebo group", "setting": "[1]; [3]", "value": -129.57, "unit": "pg/mL"}, {"measurement": "total-Tau (remeasured) change at week 52 from baseline, least square means (standard error)", "setting": "[1]; [3]", "value": "−101.35 (32.552) pg/mL"}, {"measurement": "total-Tau (remeasured) change at week 52 from baseline, difference from placebo group", "setting": "[1]; [4]", "value": -36.10, "unit": "pg/mL"}, {"measurement": "total-Tau (remeasured) change at week 52 from baseline, least square means (standard error)", "setting": "[1]; [4]", "value": "−7.88 (38.632) pg/mL"}, {"measurement": "change in the concentration of AP in the cerebrospinal fluid at week 52 from the baseline", "setting": "Aβ", "value": "tended to be increased in a dose dependent manner"}, {"measurement": "change in the concentration of p-Tau in the cerebrospinal fluid at week 52 from the baseline", "setting": "[2]; Compound A group compared to the placebo group, mild to moderate AD patients", "value": "consistently tended to be decreased in a dose-dependent manner"}, {"measurement": "change in the concentration of p-Tau in the cerebrospinal fluid at week 52 from the baseline, statistical comparison", "setting": "[2]; Compound A high dose group versus placebo group, analysis of covariance, significance level 5%", "value": "statistically significant difference"}, {"measurement": "p-Tau change at week 52 from baseline, difference from placebo group", "setting": "[2]; [5]", "value": -7.59, "unit": "pg/mL"}, {"measurement": "p-Tau change at week 52 from baseline, least square means (standard error)", "setting": "[2]; [5]", "value": "−7.30(2.281) pg/mL"}, {"measurement": "p-Tau change at week 52 from baseline, difference from placebo group", "setting": "[2]; [6]", "value": -4.23, "unit": "pg/mL"}, {"measurement": "p-Tau change at week 52 from baseline, least square means (standard error)", "setting": "[2]; [6]", "value": "−3.94(2.715) pg/mL"}, {"measurement": "Aβ-38 change at week 52 from baseline, difference from placebo group", "setting": "Aβ-38; [3]", "value": 525.66, "unit": "pg/mL"}, {"measurement": "Aβ-38 change at week 52 from baseline, least square means (standard error)", "setting": "Aβ-38; [3]", "value": "178.64(221.978) pg/mL"}, {"measurement": "Aβ-38 change at week 52 from baseline, difference from placebo group", "setting": "Aβ-38; [4]", "value": 127.43, "unit": "pg/mL"}, {"measurement": "Aβ-38 change at week 52 from baseline, least square means (standard error)", "setting": "Aβ-38; [4]", "value": "−219.58(266.774) pg/mL"}]}]}
